The text below walks through data of patent US20260317320A1, “C5AR1 ANTAGONISTS AND USES THEREOF” (Vanqua Bio, Inc., priority 2022, published 2026).

For assay [1], the target named is T1, complement C5a receptor 1 (C5aR1) (Homo sapiens, UniProt P21730).
T1 construct: β-galactosidase fragment (PathHunter enzyme complementation); host or cells: CHO-K1 (PathHunter CHO-K1 C5aR1 β-arrestin cell line)
T1 sequence (P21730 1-350): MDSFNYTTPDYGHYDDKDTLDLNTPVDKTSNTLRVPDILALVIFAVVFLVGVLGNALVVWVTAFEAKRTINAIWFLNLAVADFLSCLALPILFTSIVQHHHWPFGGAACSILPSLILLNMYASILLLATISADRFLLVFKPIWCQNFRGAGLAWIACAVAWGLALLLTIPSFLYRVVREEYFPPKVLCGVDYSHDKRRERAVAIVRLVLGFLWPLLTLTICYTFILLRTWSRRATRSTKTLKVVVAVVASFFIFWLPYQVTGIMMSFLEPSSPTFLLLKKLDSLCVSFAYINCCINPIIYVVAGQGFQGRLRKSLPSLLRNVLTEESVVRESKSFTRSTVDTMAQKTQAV
The assay is described as follows: β-arrestin recruitment via C5aR1 activation in live CHO-K1 cells (PathHunter), antagonist mode. It is filed as cell-based. The conditions noted are these: antagonist mode; recombinant hC5a (EC90) as competing natural agonist; live CHO-K1 cells; read-out: [Antagonist] B-arrestin2 recruitment: Average IC50. Summed up:
(§1)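 Live CHO-K1 cells expressing β-galactosidase fragments fused to β-arrestin and C5aR1; recruitment is read by fragment complementation. In agonist mode compounds are tested alone; in antagonist mode they compete against recombinant hC5a at EC90. IC50 reported in binned ranges.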

In assay [2] the target is T1, complement C5a receptor 1 (C5aR1). As to the kind of experiment: β-arrestin recruitment via C5aR1 activation in live CHO-K1 cells (PathHunter), agonist mode. It is filed as cell-based. Summed up: as §1

Where two headings read alike, the source gives them in different places. A value given as a limit tells only on which side of the number the result lay.

Take `Cc1ccnc(F)c1N1CCC(c2cc3nccnc3n(Cc3ncccc3C(F)(F)F)c2=O)CC1` [compound 127, 7-(1-(2-Fluoro-4-methylpyridin-3-yl)piperidin-4-yl)-5-((3-(trifluoromethyl)pyridin-2-yl)methyl)pyrido[2,3-b]pyrazin-6(5H)-one]: in assay [1], the IC50 was less than 0.5 µM. Also, in assay [2], the “[Agonist] B-arrestin2 recruitment: Average EC50 (nM)” value (shortened to “[Agonist] B-arrestin2 recruitment”) is reported as “Non-Active”.

`Cc1ccnc(F)c1N1CCC(c2cc3nccnc3n(Cc3nccnc3C)c2=O)CC1` [compound 128, 7-(1-(2-Fluoro-4-methylpyridin-3-yl)piperidin-4-yl)-5-((3-methylpyrazin-2-yl)methyl)pyrido[2,3-b]pyrazin-6(5H)-one]: in assay [1], the IC50 lay within 5 to 100 µM. Also, the “[Agonist] B-arrestin2 recruitment” value in assay [2] (at 10 μM) was “Non-Active at 10 μM”.

In the case of `Cc1ccc2cc([C@H]3CC[C@H](c4c(C)ccnc4F)CC3)c(=O)n(Cc3ncccc3C(C)(F)F)c2n1` [compound 258, 1-((3-(1,1-difluoroethyl)pyridin-2-yl)methyl)-3-((1r,4r)-4-(2-fluoro-4-methylpyridin-3-yl)cyclohexyl)-7-methyl-1,8-naphthyridin-2(1H)-one], in assay [1], the IC50 was less than 0.5 µM. In addition, in assay [2], the “[Agonist] B-arrestin2 recruitment” value is “Non-Active”.

On to `Cc1ccc2cc([C@H]3CC[C@H](c4c(C)cccc4F)CC3)c(=O)n(Cc3nccnc3OCC(F)(F)F)c2n1` [compound 264, 7-Methyl-3-[(1r,4r)-4-(2-fluoro-6-tolyl)cyclohexyl]-1-{[3-(2,2,2-trifluoroethoxy)-2-pyrazinyl]methyl}-1,8-diaza-2(1H)-naphthalenone], for which the IC50 in assay [1] was less than 0.5 µM. Besides, the “[Agonist] B-arrestin2 recruitment” value in assay [2] is “Non-Active”.

Regarding `Cc1cccc(F)c1[C@H]1CC[C@@H](c2cc3nccnc3n(Cc3ncccc3C(F)(F)F)c2=O)C1` [200C, 7-((1R,3S)-3-(2-Fluoro-6-methylphenyl)cyclopentyl)-5-((3-(trifluoromethyl)pyridin-2-yl)methyl)pyrido[2,3-b]pyrazin-6(5H)-one], the half-maximal inhibitory concentration (IC50) in assay [1] was 0.5 to 5 µM. The “[Agonist] B-arrestin2 recruitment” value in assay [2] (at 10 μM) was “Non-Active at 10 μM”.

For `Cc1cnc2cc([C@H]3CC[C@H](c4c(C)ccnc4F)CC3)c(=O)n(Cc3ncccc3C(F)(F)F)c2n1` [147B, 7-((1r,4r)-4-(2-Fluoro-4-methylpyridin-3-yl)cyclohexyl)-3-methyl-5-((3-(trifluoromethyl)pyridin-2-yl)methyl)pyrido[2,3-b]pyrazin-6(5H)-one], in assay [1], the 50% inhibitory concentration (IC50) was less than 0.5 µM. The “[Agonist] B-arrestin2 recruitment” value in assay [2] is “Non-Active”.

For `Cc1ccc2cc([C@H]3CC[C@H](c4c(F)cccc4F)CC3)c(=O)n(Cc3ncccc3C(F)(F)F)c2n1` [compound 223, 3-((1r,4r)-4-(2,6-Difluorophenyl)cyclohexyl)-7-methyl-1-((3-(trifluoromethyl)pyridin-2-yl)methyl)-1,8-naphthyridin-2(1H)-one], in assay [1], the half-inhibitory concentration (IC50) is less than 0.5 µM. In addition, the “[Agonist] B-arrestin2 recruitment” value in assay [2] (at 10 μM) is reported as “Non-Active at 10 μM”.

For the compound `Cc1cnc2cc([C@H]3CC[C@H](c4c(C)cccc4F)CC3)c(=O)n([C@@H]3CCC(F)(F)c4nccnc43)c2n1` [174B, 5-((R)-8,8-Difluoro-5,6,7,8-tetrahydroquinoxalin-5-yl)-7-((1r,4R)-4-(2-fluoro-6-methylphenyl)cyclohexyl)-3-methylpyrido[2,3-b]pyrazin-6(5H)-one], the IC50 in assay [1] lay in the range of 0.5 to 5 µM. For the same compound, the “[Agonist] B-arrestin2 recruitment” value in assay [2] (at 10 μM) is listed as “Non-Active at 10 μM”.

`Cc1ccc2cc([C@H]3CC[C@H](c4cnccc4C(F)(F)F)CC3)c(=O)n(Cc3ncccc3C3CC3)c2n1` [compound 248, 1-((3-Cyclopropylpyridin-2-yl)methyl)-7-methyl-3-((1r,4r)-4-(4-(trifluoromethyl)pyridin-3-yl)cyclohexyl)-1,8-naphthyridin-2(1H)-one]: the concentration for half-maximal inhibition (IC50) in assay [1] was less than 0.5 µM. For the same compound, the “[Agonist] B-arrestin2 recruitment” value in assay [2] (at 10 μM) is recorded as “Non-Active at 10 μM”.

Turning to `Cc1cnc2cc([C@H]3CC[C@H](c4ncccc4C(F)F)CC3)c(=O)n(Cc3ncccc3C(F)(F)F)c2n1` [compound 179, 7-((1r,4r)-4-(3-(Difluoromethyl)pyridin-2-yl)cyclohexyl)-3-methyl-5-((3-(trifluoromethyl)pyridin-2-yl)methyl)pyrido[2,3-b]pyrazin-6(5H)-one], in assay [1], the IC50 was less than 0.5 µM. For the same compound, in assay [2] (at 10 μM), the “[Agonist] B-arrestin2 recruitment” value is reported as “Non-Active at 10 μM”.

`Cc1cnc2cc(C3CCCCC3)c(=O)n(Cc3ncccc3C(F)(F)F)c2n1` [compound 265, 7-Cyclohexyl-3-methyl-5-{[3-(trifluoromethyl)-2-pyridyl]methyl}-1,4,5-triaza-6(5H)-naphthalenone]: the IC50 in assay [1] was in the range of 0.5 to 5 µM. Further, the “[Agonist] B-arrestin2 recruitment” value in assay [2] is given as “Non-Active”.

In the case of `Cc1ccc2cc([C@H]3CC[C@H](c4c(C)cccc4F)CC3)c(=O)n(Cc3ncccc3OC(F)(F)F)c2n1` [compound 196, 3-((1r,4r)-4-(2-Fluoro-6-methylphenyl)cyclohexyl)-7-methyl-1-((3-(trifluoromethoxy)pyridin-2-yl)methyl)-1,8-naphthyridin-2(1H)-one], the half-maximal inhibitory concentration (IC50) in assay [1] was less than 0.5 µM. Further, in assay [2], the “[Agonist] B-arrestin2 recruitment” value is on record as “Non-Active”.

Consider `Cc1cnc2cc([C@H]3CC[C@H](c4c(C)cccc4F)C3)c(=O)n(Cc3nccnc3C)c2n1` [172C, 7-((1S,3S)-3-(2-Fluoro-6-methylphenyl)cyclopentyl)-3-methyl-5-((3-methylpyrazin-2-yl)methyl)pyrido[2,3-b]pyrazin-6(5H)-one], for which the 50% inhibitory concentration (IC50) in assay [1] is less than 0.5 µM. In assay [2] (at 10 μM), the “[Agonist] B-arrestin2 recruitment” value is reported as “Non-Active at 10 μM”.

In the case of `Cc1ccc2cc([C@H]3CC[C@H](c4c(C)ccnc4F)CC3)c(=O)n(Cc3ncccc3OC(F)(F)F)c2n1` [compound 255, 7-Methyl-3-[(1r,4r)-4-(2-fluoro-4-methyl-3-pyridyl)cyclohexyl]-1-[(3-trifluoromethoxy-2-pyridyl)methyl]-1,8-diaza-2(1H)-naphthalenone], the IC50 in assay [1] was less than 0.5 µM. Further, the “[Agonist] B-arrestin2 recruitment” value in assay [2] is listed as “Non-Active”.

In the case of `Cc1ccc2cc([C@H]3CC[C@H](c4ccccc4C(F)(F)F)CC3)c(=O)n(Cc3ncccc3OC(F)(F)F)c2n1` [compound 244, 7-Methyl-1-((3-(trifluoromethoxy)pyridin-2-yl)methyl)-3-((1r,4r)-4-(2-(trifluoromethyl)phenyl)cyclohexyl)-1,8-naphthyridin-2(1H)-one], in assay [1], the half-inhibitory concentration (IC50) was less than 0.5 µM. Also, the “[Agonist] B-arrestin2 recruitment” value in assay [2] is “Non-Active”.

`Cc1cccc(F)c1[C@H]1CC[C@H](c2cc3nc(CC(F)(F)F)cnc3n(Cc3ncccc3C(F)(F)F)c2=O)CC1` [compound 228, 7-((1r,4r)-4-(2-Fluoro-6-methylphenyl)cyclohexyl)-2-(2,2,2-trifluoroethyl)-5-((3-(trifluoromethyl)pyridin-2-yl)methyl)pyrido[2,3-b]pyrazin-6(5H)-one]: the IC50 in assay [1] is less than 0.5 µM. Moreover, the “[Agonist] B-arrestin2 recruitment” value in assay [2] (at 10 μM) is on record as “Non-Active at 10 μM”.

Turning to `Cc1ncc(F)cc1N1CCC(c2cc3nccnc3n(Cc3nccnc3C(F)(F)F)c2=O)CC1` [compound 45, 7-(1-(5-Fluoro-2-methylpyridin-3-yl)piperidin-4-yl)-5-((3-(trifluoromethyl)pyrazin-2-yl)methyl)pyrido[2,3-b]pyrazin-6(5H)-one], the half-inhibitory concentration (IC50) in assay [1] is more than 100 µM. In addition, the “[Agonist] B-arrestin2 recruitment” value in assay [2] is “Non-Active”.

`Cc1cnc2cc([C@H]3CC[C@H](c4c(F)cccc4F)CC3)c(=O)n(Cc3ncccc3C(C)(F)F)c2n1` [compound 250, 5-((3-(1,1-Difluoroethyl)pyridin-2-yl)methyl)-7-((1r,4r)-4-(2,6-difluorophenyl)cyclohexyl)-3-methylpyrido[2,3-b]pyrazin-6(5H)-one]: the IC50 in assay [1] was less than 0.5 µM. Further, the “[Agonist] B-arrestin2 recruitment” value in assay [2] (at 10 μM) is listed as “Non-Active at 10 μM”.

Consider `Cc1cnc2cc([C@H]3CC[C@H](c4c(C)cccc4F)CC3)c(=O)n(Cc3nccnc3C3CC3)c2n1` [compound 221, 5-((3-Cyclopropylpyrazin-2-yl)methyl)-7-((1r,4r)-4-(2-fluoro-6-methylphenyl)cyclohexyl)-3-methylpyrido[2,3-b]pyrazin-6(5H)-one], for which, in assay [1], the IC50 was less than 0.5 µM. Moreover, the “[Agonist] B-arrestin2 recruitment” value in assay [2] (at 10 μM) is listed as “Non-Active at 10 μM”.

Consider `Cc1cnc2cc(N3CCN(c4c(C)cccc4F)CC3)c(=O)n(Cc3ncccc3C(F)F)c2n1` [compound 140, 5-((3-(Difluoromethyl)pyridin-2-yl)methyl)-7-(4-(2-fluoro-6-methylphenyl)piperazin-1-yl)-3-methylpyrido[2,3-b]pyrazin-6(5H)-one], for which the concentration for half-maximal inhibition (IC50) in assay [1] is less than 0.5 µM. Besides, the “[Agonist] B-arrestin2 recruitment” value in assay [2] (at 10 μM) is given as “Non-Active at 10 μM”.

For `Cc1cnc2cc([C@@H]3CC[C@H](c4c(C)cccc4F)C3)c(=O)n(Cc3ncccc3C(F)F)c2n1` [187C, 5-((3-(Difluoromethyl)pyridin-2-yl)methyl)-7-((1R,3S)-3-(2-fluoro-6-methylphenyl)cyclopentyl)-3-methylpyrido[2,3-b]pyrazin-6(5H)-one], the half-maximal inhibitory concentration (IC50) in assay [1] is less than 0.5 µM. In addition, the “[Agonist] B-arrestin2 recruitment” value in assay [2] (at 10 μM) is reported as “Non-Active at 10 μM”.
